This note sets out measurements from patent US7998989B2, “2-Imino-1,3-thiazoline-based compounds and T-type calcium channel inhibitors containing the same” (Korea Institute of Science and Technology, priority 2007, dated 2011).

In general, melting point refers to the temperature of the solid-liquid transition.

Data set [1] addresses T1, α1G T-type calcium channel (Homo sapiens, UniProt O43497).
T1 construct: host or cells: HEK293
The experiment in a line: Assay for % inhibiting activity against T-type calcium channel using FDSS6000 (fluo-3 calcium imaging, KCl activation). It counts as cell-based. To be noted: HEK293 cells stably expressing α1G T-type calcium channel and Kir2.1, compounds of the examples; for inhibition at 10 µM: HEK293, 10 μM, read-out: FDSS (% inhibition)/10uM. As to the method: In the present invention, in order to examine an efficient inhibitor against the T-type calcium channel, a primary assay for T-type calcium channel inhibiting activity was conducted by a high-efficient assay using FDSS6000, wherein mammal HEK293 cell lines (originated from human kidney carcinoma cells) that specifically express α1G of the T-type calcium channel was used for primary assay. Through the primary assay, compounds that show meaningful inhibition effects were selected. The selected compounds were used in a second assay for T-type calcium channel inhibiting activity using an electrophysiological whole cell patch clamp method, wherein mammal HEK293 cell lines (originated from human kidney carcinoma cells) that specifically express α1G of the T-type calcium channel was used for the second assay. Mibefradil, which had been developed as a T-type calcium channel inhibitor, was used as a reference.
At 12-24 hours before being used for this assay, cells of HEK293 cell line (α1G cell line: KCTC 10519BP, Korean Collection for Type Cultures), which stably express α1G T-type calcium channel and Kir2.1, were sub-cultured in a poly-L-lysine treated 96-well plate with the density of 4×10^4 per well using a 96-well cell dispenser (Titertek). On the day of assay, the 96-well plate to which the cells were attached was washed three times with HEPES buffer solution (150 mM of NaCl, 5 mM of KCl, 1 mM of MgCl2, 2 mM of CaCl2, 10 mM of HEPES, 10 mM of glucose; pH 7.4) using a 96-well plate automatic washing device (Bio Tek), then reacted with HEPES buffer solution containing 5 μM fluo-3/AM and 0.001% Pluronic F-127 at room temperature for 1 hour, to label with fluorescent dye, and then further washed two times with HEPES buffer solution.
Thereafter, at 10 minutes before the measurement using device FDSS6000, washing with HEPES buffer solution containing 10 mM CaCl2 was conducted once more, and the final volume was adjusted to 81 μl. Besides the above 96-well plate containing the cells, two additional drug 96-well plates were provided, wherein the 96-well plates contained an inhibiting drug and KCl (final concentration: 75 mM) for activating the T-type calcium channel, respectively. Since most of cell-based HTS devices are equipped with a liquid application system for injection of drug, but have no liquid sucking system, the inhibiting drug to be tested and KCl were respectively provided at a five-times higher concentration in 10 mM CaCl2 HEPES buffer solution at the amount of 27 μl, diluted by five-times at the final cell plate volume of 135 μl, and then used in this test. The concrete method of measurement using FDSS6000 was as follows. After recording the reference value of 20 seconds, the change of intracellular Ca^2+ concentration that was induced by treatment of the inhibiting drug to be tested for 75 seconds followed by administration of KCl was measured, wherein the percentage (%) inhibition effect of the test drug, through estimating the area of ratio value of 340/380 in the control without treatment of the test drug, was 100%. As a reference drug, 10 μM mibefradil was used.
For accurate calcium imaging, the light source of 4 xenon lamps in FDSS6000 were radiated to selectively expose the cells to the excitation wavelength (340 nm and 380 nm) by a computer-controlled filter wheel. Data was obtained at intervals of 1.23 seconds. The emitter fluorescence light inflowed through a long-pass filter was obtained as an average 340/380 ratio value for each well in the 96-wells by using a CCD camera and a digital fluorescence analyzer in FDSS6000. All image data and analyses were obtained by using a FDSS6000-exclusive program from Hamamatsu Photonics.
The obtained results are shown in Table 2 (the results from the compounds according to the examples of the present invention) and Table 3 (the results from the compounds according to the comparative example where R6 is a phenyl group) [FDSS (% inhibition) 10 μM].

SMILES strings stand for the structures. Structures can show the parent of a compound that is named as a salt.

T1 sequence (O43497 whole entry): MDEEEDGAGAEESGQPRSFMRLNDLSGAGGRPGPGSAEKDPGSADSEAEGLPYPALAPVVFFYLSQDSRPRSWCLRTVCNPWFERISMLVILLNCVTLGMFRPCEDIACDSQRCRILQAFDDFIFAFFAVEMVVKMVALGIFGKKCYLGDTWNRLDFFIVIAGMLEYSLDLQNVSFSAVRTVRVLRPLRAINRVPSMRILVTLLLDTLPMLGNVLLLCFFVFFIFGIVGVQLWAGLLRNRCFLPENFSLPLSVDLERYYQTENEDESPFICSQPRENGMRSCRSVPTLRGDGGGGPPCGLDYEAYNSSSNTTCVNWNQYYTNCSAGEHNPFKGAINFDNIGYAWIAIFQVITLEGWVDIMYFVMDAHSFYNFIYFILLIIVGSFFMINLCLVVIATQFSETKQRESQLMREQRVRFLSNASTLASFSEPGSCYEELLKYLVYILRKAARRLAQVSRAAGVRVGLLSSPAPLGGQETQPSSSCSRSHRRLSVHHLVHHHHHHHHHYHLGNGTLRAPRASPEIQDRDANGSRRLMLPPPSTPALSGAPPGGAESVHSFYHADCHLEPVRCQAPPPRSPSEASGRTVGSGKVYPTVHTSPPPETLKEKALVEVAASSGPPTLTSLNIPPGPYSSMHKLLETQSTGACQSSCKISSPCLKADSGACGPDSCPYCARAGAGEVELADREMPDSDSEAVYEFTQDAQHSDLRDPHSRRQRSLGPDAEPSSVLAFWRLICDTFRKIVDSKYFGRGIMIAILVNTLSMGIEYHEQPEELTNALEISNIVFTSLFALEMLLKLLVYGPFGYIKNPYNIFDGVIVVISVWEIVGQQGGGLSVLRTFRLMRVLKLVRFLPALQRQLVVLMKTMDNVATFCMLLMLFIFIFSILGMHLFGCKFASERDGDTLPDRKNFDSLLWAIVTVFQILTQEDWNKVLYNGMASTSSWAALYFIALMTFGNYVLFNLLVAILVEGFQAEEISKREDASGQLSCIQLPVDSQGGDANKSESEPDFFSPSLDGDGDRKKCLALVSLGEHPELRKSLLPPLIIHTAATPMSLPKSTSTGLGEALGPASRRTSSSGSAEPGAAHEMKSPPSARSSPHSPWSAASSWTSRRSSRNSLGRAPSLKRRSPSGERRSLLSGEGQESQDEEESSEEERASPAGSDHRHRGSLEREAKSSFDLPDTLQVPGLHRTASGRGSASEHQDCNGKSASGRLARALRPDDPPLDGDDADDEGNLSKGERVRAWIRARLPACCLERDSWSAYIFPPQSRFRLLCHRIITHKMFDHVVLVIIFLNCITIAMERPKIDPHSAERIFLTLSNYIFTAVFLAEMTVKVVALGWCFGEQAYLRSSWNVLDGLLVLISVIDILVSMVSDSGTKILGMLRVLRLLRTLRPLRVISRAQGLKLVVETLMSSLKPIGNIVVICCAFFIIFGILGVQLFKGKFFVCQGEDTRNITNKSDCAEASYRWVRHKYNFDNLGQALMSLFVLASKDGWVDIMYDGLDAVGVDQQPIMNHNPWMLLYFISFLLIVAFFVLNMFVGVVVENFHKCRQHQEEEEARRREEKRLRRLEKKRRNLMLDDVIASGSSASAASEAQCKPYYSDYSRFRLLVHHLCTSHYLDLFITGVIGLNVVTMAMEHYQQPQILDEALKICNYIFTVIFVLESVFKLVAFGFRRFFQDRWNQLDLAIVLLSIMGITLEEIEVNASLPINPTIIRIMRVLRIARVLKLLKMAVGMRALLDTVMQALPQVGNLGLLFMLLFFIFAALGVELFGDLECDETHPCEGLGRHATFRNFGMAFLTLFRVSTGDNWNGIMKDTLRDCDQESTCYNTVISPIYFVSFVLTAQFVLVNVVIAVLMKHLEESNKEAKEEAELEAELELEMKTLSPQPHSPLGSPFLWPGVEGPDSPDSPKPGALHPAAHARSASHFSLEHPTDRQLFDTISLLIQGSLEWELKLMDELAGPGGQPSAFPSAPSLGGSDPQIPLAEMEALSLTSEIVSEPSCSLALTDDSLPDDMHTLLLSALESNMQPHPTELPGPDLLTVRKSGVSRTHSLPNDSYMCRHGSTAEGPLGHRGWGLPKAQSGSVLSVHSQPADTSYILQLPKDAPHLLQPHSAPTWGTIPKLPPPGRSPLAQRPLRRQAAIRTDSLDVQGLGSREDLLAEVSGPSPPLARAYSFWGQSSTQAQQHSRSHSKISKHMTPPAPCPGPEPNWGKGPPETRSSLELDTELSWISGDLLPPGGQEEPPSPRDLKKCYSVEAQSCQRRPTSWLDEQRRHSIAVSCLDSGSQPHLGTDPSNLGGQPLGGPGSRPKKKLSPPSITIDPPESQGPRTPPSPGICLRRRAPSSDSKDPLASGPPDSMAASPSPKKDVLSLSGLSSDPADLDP

Turning to `CN1C(=NC2CCCCC2)SCC1CC(=O)Nc1ccc2c(c1)OCO2` (centres unmarked) [KHG24086, (2-cyclohexylimino-3-methyl-1,3-thiazolidine-4-yl)-N-(3,4-methylenedioxyphenyl)-acetamide hydrochloride], the inhibition at 10 µM in data set [1] was 30.5%. On the same count and under the same terms, for `CN1C(=NC2CCCCC2)SCC1CC(=O)Nc1cc(F)ccc1F` (centres unmarked) [KHG24087, (2-cyclohexylimino-3-methyl-1,3-thiazolidine-4-yl)-N-(2,5-difluorophenyl)-acetamide hydrochloride] the value was 35.4%.

For `CCc1ccc(NC(=O)CC2CSC(=NC3CCCC3)N2C)cc1.Cl` (centres unmarked) [KHG24092, (2-cyclopentylimino-3-methyl-1,3-thiazolidine-4-yl)-N-(4-ethylphenyl)-acetamide hydrochloride], in data set [1], the inhibition at 10 µM came out at 43.1%.

Turning to `CCc1ccc(NC(=O)CC2CSC(=NC3CCCC3)N2C)cc1.Cl` (centres unmarked) [KHG24093, (2-cyclopentylimino-3-methyl-1,3-thiazolidine-4-yl)-N-(4-ethylphenyl)-acetamide hydrochloride], the “FDSS (% inhibition)/10uM” value in data set [1] (hydrochloride) was determined as 34.77%. As for `CC(C)c1ccc(NC(=O)CC2CSC(=NC3CCCCC3)N2C)cc1` (centres unmarked) [KHG24110, (2-cyclohexylimino-3-methyl-1,3-thiazolidine-4-yl)-N-(4-isopropylphenyl)-acetamide hydrochloride], the inhibition at 10 µM in data set [1] was 53.6%. Take `Cl.O=C(CC1CSC(=NC2CCCCC2)N1C1CCCCC1)Nc1ccc(Cl)cc1` (centres unmarked) [KHG24266, [2-cyclohexylimino-3-cyclohexyl-1,3-thiazolidine-4-yl]-N-(4-chlorophenyl)-acetamide hydrochloride]: the inhibition at 10 µM in data set [1] worked out at 33.6%. On the same count and under the same terms, for `Cl.O=C(CC1CSC(=NC2CCCCC2)N1C1CCCCC1)Nc1cc(C(F)(F)F)cc(C(F)(F)F)c1` (centres unmarked) [KHG24307, (2-cyclohexylimino-3-cyclohexyl-1,3-thiazolidine-4-yl)-N-(3,5-ditrifluoromethylphenyl)-acetamide hydrochloride] the value was 43.9%.

With `Cc1ccc(NC(=O)CC2CSC(=NC3CCCCC3)N2C2CCCCC2)cc1.Cl` (centres unmarked) [KHG24313, (2-cyclohexylimino-3-cyclohexyl-1,3-thiazolidine-4-yl)-N-(4-methylphenyl)-acetamide hydrochloride], the inhibition at 10 µM in data set [1] came to 31%. In the case of `CCCCc1ccc(NC(=O)CC2CSC(=NC34CC5CC(CC(C5)C3)C4)N2C)cc1.Cl` (centres unmarked) [KHG24409], the “FDSS (% inhibition)/10uM” value in data set [1] is on record as 57.43%. Consider `CN1C(=NC23CC4CC(CC(C4)C2)C3)SCC1CC(=O)Nc1cc(Cl)cc(Cl)c1.Cl` (centres unmarked) [KHG24410], for which the “FDSS (% inhibition)/10uM” value in data set [1] (hydrochloride) is recorded as 64.09%. Take `CN1C(=NC23CC4CC(CC(C4)C2)C3)SCC1CC(=O)Nc1ccc(Cl)cc1F.Cl` (centres unmarked) [KHG24411]: the “FDSS (% inhibition)/10uM” value in data set [1] amounted to 62.67%. Same read-out and setting: for `CN1C(=NC23CC4CC(CC(C4)C2)C3)SCC1CC(=O)Nc1ccccc1.Cl` (centres unmarked) [KHG24412] the value was 56.4%.

As for `Cc1ccc(NC(=O)CC2CSC(=NC34CC5CC(CC(C5)C3)C4)N2C)c(Cl)c1.Cl` (centres unmarked) [KHG24413], in data set [1] (hydrochloride), the “FDSS (% inhibition)/10uM” value is 62.08%. For `CN1C(=NC2CCCCCC2)SCC1CC(=O)Nc1ccc(N)cc1` (centres unmarked) [KHG24448, (2-cycloheptylimino-3-methyl-1,3-thiazolidine-4-yl)-N-(4-aminophenyl)-acetamide hydrochloride], in data set [1], the inhibition at 10 µM was determined as 47.4%. Turning to `CN1C(=NC2CCCCCC2)SCC1CC(=O)NCc1ccc(N)cc1` (centres unmarked) [KHG24449, (2-cycloheptylimino-3-methyl-1,3-thiazolidine-4-yl)-N-(4-aminobenzyl)-acetamide hydrochloride], in data set [1], the inhibition at 10 µM amounted to 40.5%. On to `CN1C(=NC2CCCCC2)SCC1CC(=O)Nc1cc(C(F)(F)F)cc(C(F)(F)F)c1` (centres unmarked) [KHG24529, (2-cyclohexylimino-3-methyl-1,3-thiazolidine-4-yl)-N-(3,5-ditrifluoromethylphenyl)-acetamide hydrochloride], for which the inhibition at 10 µM in data set [1] worked out at 58.2%. In the case of `Cc1ccc(NC(=O)CC2CSC(=NC3CCCCC3)N2C2CCCCC2)cc1.Cl` (centres unmarked) [KHG24535, (2-cyclohexylimino-3-cyclohexyl-1,3-thiazolidine-4-yl)-N-(4-methylphenyl)-acetamide hydrochloride], the “FDSS (% inhibition)/10uM” value in data set [1] (hydrochloride) stood at 40.31%. Regarding `Cc1ccc(NC(=O)C2CSC(=NC3CCCCCC3)N2C)cc1` (centres unmarked) [KHG24628, (2-cycloheptylimino-3-methyl-1,3-thiazolidine-4-yl)-N-(4-methylphenyl)-carboxamide], the inhibition at 10 µM in data set [1] was 42.6%.

As for `CN1C(=NC2CCCCCC2)SCC1C(=O)Nc1cc(C(F)(F)F)cc(C(F)(F)F)c1` (centres unmarked) [KHG24630, (2-cycloheptylimino-3-methyl-1,3-thiazolidine-4-yl)-N-(3,5-ditrifluoromethylphenyl)-carboxamide], in data set [1], the inhibition at 10 µM is 56.8%. Regarding `CCc1ccc(NC(=O)C2CSC(=NC3CCCCCC3)N2C)cc1` (centres unmarked) [KHG24664, (2-cycloheptylimino-3-methyl-1,3-thiazolidine-4-yl)-N-(4-ethylphenyl)-carboxamide], the melting point was in the range of 194 to 195 °C. Same read-out and setting: the same measure for `CN1C(=NC2CCCCCC2)SCC1C(=O)Nc1cc(Cl)cc(Cl)c1` (centres unmarked) [KHG24674, (2-cycloheptylimino-3-methyl-1,3-thiazolidine-4-yl)-N-(3,5-dichlorophenyl)-carboxamide]: 191.2 °C. `CN1C(=NC2CCCCCC2)SCC1C(=O)Nc1ccc(Cl)cc1` (centres unmarked) [KHG24677, (2-cycloheptylimino-3-methyl-1,3-thiazolidine-4-yl)-N-(4-chlorophenyl)-carboxamide] returned a melting point of 199.7 °C. The same measure, in the same setting: for `CC(C)c1ccc(NC(=O)C2CSC(=NC3CCCCCC3)N2C)cc1` (centres unmarked) [KHG24680, (2-cycloheptylimino-3-methyl-1,3-thiazolidine-4-yl)-N-(4-isopropylphenyl)-carboxamide] the value was 207.6 °C. Consider `CN1C(=NC2CCCCCC2)SCC1C(=O)Nc1ccc(Oc2ccccc2)cc1` (centres unmarked) [KHG24682, (2-cycloheptylimino-3-methyl-1,3-thiazolidine-4-yl)-N-(4-phenoxyphenyl)-carboxamide], for which the melting point stood at 278.6 °C. Same read-out and setting: for `CN1C(=NC2CCCCCC2)SCC1C(=O)Nc1ccc(C(C)(C)C)cc1` (centres unmarked) [KHG24684, (2-cycloheptylimino-3-methyl-1,3-thiazolidine-4-yl)-N-(4-t-butylphenyl)-carboxamide] the value was 170.8 °C. `CN1C(=NC2CCCCCC2)SCC1C(=O)Nc1cc(Cl)ccc1F` (centres unmarked) [KHG24686, (2-cycloheptylimino-3-methyl-1,3-thiazolidine-4-yl)-N-(5-chloro-2-fluorophenyl)-carboxamide] had a melting point of 241.2 °C. On the same count and under the same terms, for `CCCCc1ccc(NC(=O)C2CSC(=NC3CCCCCC3)N2C)cc1` (centres unmarked) [KHG24689, (2-cycloheptylimino-3-methyl-1,3-thiazolidine-4-yl)-N-(4-n-butylphenyl)-carboxamide] the value was 173.3 °C. Regarding `CCCCN1C(=NC23CC4CC(CC(C4)C2)C3)SCC1CC(=O)Nc1ccc2c(c1)OCO2.Cl` (centres unmarked) [KHG24803, [2-(1-adamantylimino)-3-n-butyl-1,3-thiazolidine-4-yl]-N-(3,4-dioxymethylenephenyl)-acetamide hydrochloride], the “FDSS (% inhibition)/10uM” value in data set [1] was determined as 66.47%.

Consider `Cl.O=C(CC1CSC(=NC23CC4CC(CC(C4)C2)C3)N1C1CC1)Nc1ccc2c(c1)OCO2` (centres unmarked) [KHG24804, [2-(1-adamantylimino)-3-cyclopropyl-1,3-thiazolidine-4-yl]-N-(3,4-dioxymethylenephenyl)-acetamide hydrochloride], for which, in data set [1], the “FDSS (% inhibition)/10uM” value was 44.67%.
